Source: ChEMBL document CHEMBL1130087, “Phosphodiester amidates of unsaturated nucleoside analogues: synthesis and anti-HIV activity” (J Med Chem, 1997)

Legend:
liver esterase = assay: Half-life catalyzed by Pig Liver Esterase; assay type: ADME, Sus scrofa
ATH-8 cell line = assay: tested for cytotoxicity of HIV-1 replication in ATH-8 cells; assay type: functional, Homo sapiens
[1] = biological target: Human immunodeficiency virus 1; assay: tested for its anti-HIV activity.

Structure (SMILES)	half-life (liver esterase)	EC50 [1]	Cytotoxicity (ATH-8 cell line)
COC(=O)C(C)NP(=O)(OCC=C=Cn1cnc2c(O)ncnc21)Oc1ccccc1 (configuration not stated)	8.5 h		
COC(=O)C(C)NP(=O)(OCC=C=Cn1cnc2c(N)ncnc21)Oc1ccccc1 (configuration not stated)	7.3 h		
Nc1ncnc2c1ncn2C/C=C/CCOCP(=O)(O)O		9 µM	

Now from value to molecule, other results behind:

half-life (liver esterase)	EC50 [1]	Structure (SMILES)	Cytotoxicity (ATH-8 cell line)
58.3 h		COC(=O)C(C)NP(=O)(OC/C=C\Cn1cnc2c(O)ncnc21)Oc1ccccc1 (configuration not stated)	
43.5 h		COC(=O)C(C)NP(=O)(OC/C=C\Cn1cnc2c(N)ncnc21)Oc1ccccc1 (configuration not stated)	
57.1 h		COC(=O)C(C)NP(=O)(OC/C=C/Cn1cnc2c(N)ncnc21)Oc1ccccc1 (configuration not stated)	>10 µM
